Legend:
[1] = tested on: differentiated L6-myotubes; test: Glucose uptake screen (Biological example 1 of WO 2019/053427); type: cell-based; details: compound at 10 μM, activity relative to isoproterenol at 10 μM, read-out: Biological example 1 of WO 2019/053427 (GU)
In short: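 Rat L6 myoblasts were differentiated into myotubes over 7 days in 2% FBS, then serum-starved overnight. Cells were stimulated with 1×10^−5 M compound plus β2 antagonist ICI-118551 for 1 h 40 min and re-dosed for 20 min in glucose-free medium. Uptake of 50 nM ^3H-2-deoxyglucose over 10 min was counted after NaOH lysis.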

[2] = tested on: differentiated L6-myotubes; test: cAMP production relative to isoprenaline (Biological example 2 of WO 2019/053427); type: cell-based; details: 0.25 h, compound at 10 μM, activity relative to isoproterenol at 10 μM
In short: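 Differentiated L6 myotubes stimulated 15 min with test compound or isoprenaline, each at final 1×10^−5 M, in HBSS with 1% BSA, 5 mM HEPES, 1 mM IBMX, pH 7.4. cAMP production by the compound expressed relative to that induced by the same concentration of isoprenaline.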

CO[C@H]1CC[C@H](C[C@H]2CC[C@H]([C@@H](O)c3cncc(F)c3)N2)CC1 [Compound 340, (S)-[(2R,5R)-5-{[(1r,4R)-4-methoxycyclohexyl]methyl}-2-pyrrolidinyl](5-fluoro-3-pyridyl)methanol]
Emax at 10 µM [1]: 25 to 50%
Emax at 10 µM [2]: < 25%

CO[C@H]1CC[C@H](C[C@H]2CC[C@H]([C@H](O)c3cncc(F)c3)N2)CC1 [Compound 341, (R)-[(2R,5R)-5-{[(1r,4R)-4-methoxycyclohexyl]methyl}-2-pyrrolidinyl](5-fluoro-3-pyridyl)methanol]
Emax at 10 µM [1]: > 75%
Emax at 10 µM [2]: < 25%

COC(=O)[C@H]1CC[C@H](CCC(C)(C)NC[C@H](O)c2cncc(F)c2)CC1 [Compound 342, methyl (1R,4r)-4-{3-[(R)-2-(5-fluoro-3-pyridyl)-2-hydroxyethylamino]-3-methylbutyl}cyclohexanecarboxylate]
Emax at 10 µM [1]: > 75%
Emax at 10 µM [2]: < 25%

CC(C)(CC[C@H]1CC[C@H](C(=O)O)CC1)NC[C@H](O)c1cncc(F)c1 [Compound 343, (1R,4r)-4-{3-[(R)-2-(5-fluoro-3-pyridyl)-2-hydroxyethylamino]-3-methylbutyl}cyclohexanecarboxylic acid]
Emax at 10 µM [1]: 25 to 50%
Emax at 10 µM [2]: < 25%

CC(C)(NC[C@H](O)c1cncc(F)c1)[C@H]1CC[C@H](N)CC1 [Compound 344, (R)-1-(5-fluoro-3-pyridyl)-2-{1-methyl-1-[(1r,4R)-4-aminocyclohexyl]ethylamino}-1-ethanol]
Emax at 10 µM [1]: < 25%
Emax at 10 µM [2]: < 25%

CC(C)(NC[C@H](O)c1cncc(F)c1)[C@H]1CC[C@H](NS(C)(=O)=O)CC1 [Compound 345, (R)-1-(5-fluoro-3-pyridyl)-2-{1-methyl-1-[(1r,4R)-4-(mesylamino)cyclohexyl]ethylamino}-1-ethanol]
Emax at 10 µM [1]: 25 to 50%
Emax at 10 µM [2]: < 25%

CC(=O)N[C@H]1CC[C@H](C(C)(C)NC[C@H](O)c2cncc(F)c2)CC1 [Compound 346, N-[(1R,4r)-4-{1-[(R)-2-(5-fluoro-3-pyridyl)-2-hydroxyethylamino]-1-methylethyl}cyclohexyl]acetamide]
Emax at 10 µM [1]: > 75%
Emax at 10 µM [2]: < 25%

CC(C)(CC[C@H]1CC[C@@H](C(=O)O)CC1)NC[C@H](O)c1cncc(F)c1 [Compound 347, (1S,4s)-4-{3-[(R)-2-(5-fluoro-3-pyridyl)-2-hydroxyethylamino]-3-methylbutyl}cyclohexanecarboxylic acid]
Emax at 10 µM [1]: > 75%
Emax at 10 µM [2]: < 25%

CC(C)(CC[C@H]1CC[C@H](C(=O)O)CC1)NC[C@H](O)c1cccc(F)c1 [Compound 348, (1R,4r)-4-{3-[(R)-2-(m-fluorophenyl)-2-hydroxyethylamino]-3-methylbutyl}cyclohexanecarboxylic acid]
Emax at 10 µM [1]: < 25%
Emax at 10 µM [2]: < 25%

COC(=O)[C@H]1CC[C@@H](CCC(C)(C)NC[C@H](O)c2cncc(F)c2)CC1 [Compound 349, methyl (1S,4s)-4-{3-[(R)-2-(5-fluoro-3-pyridyl)-2-hydroxyethylamino]-3-methylbutyl}cyclohexanecarboxylate]
Emax at 10 µM [1]: > 75%
Emax at 10 µM [2]: 25 to 50%

COC(=O)[C@H]1CC[C@H](CCC(C)(C)NC[C@H](O)c2cccc(F)c2)CC1 [Compound 350, methyl (1R,4r)-4-{3-[(R)-2-(m-fluorophenyl)-2-hydroxyethylamino]-3-methylbutyl}cyclohexanecarobxylate]
Emax at 10 µM [1]: > 75%
Emax at 10 µM [2]: < 25%

COC(=O)[C@H]1CC[C@@H](CCC(C)(C)NC[C@H](O)c2cccc(F)c2)CC1 [Compound 351, methyl (1S,4s)-4-{3-[(R)-2-(m-fluorophenyl)-2-hydroxyethylamino]-3-methylbutyl}cyclohexanecarboxylate]
Emax at 10 µM [1]: > 75%
Emax at 10 µM [2]: 25 to 50%

CC(C)(CC[C@H]1CC[C@@H](C(=O)O)CC1)NC[C@H](O)c1cccc(F)c1 [Compound 352, (1S,4s)-4-{3-[(R)-2-(m-fluorophenyl)-2-hydroxyethylamino]-3-methylbutyl}cyclohexanecarboxylc acid]
Emax at 10 µM [1]: 25 to 50%
Emax at 10 µM [2]: < 25%

COC(=O)[C@H]1CC[C@H](CC(C)(C)NC[C@H](O)c2cccc(F)c2)CC1 [Compound 353, methyl (1R,4r)-4-{2-[(R)-2-(m-fluorophenyl)-2-hydroxyethylamino]-2-methylpropyl}cyclohexanecarboxylate]
Emax at 10 µM [1]: > 75%
Emax at 10 µM [2]: < 25%

COC(=O)[C@H]1CC[C@H](CC(C)(C)NC[C@H](O)c2cncc(F)c2)CC1 [Compound 354, methyl (1R,4r)-4-{2-[(R)-2-(5-fluoro-3-pyridyl)-2-hydroxyethylamino]-2-methylpropyl}cyclohexanecarboxylate]
Emax at 10 µM [1]: 50 to 75%
Emax at 10 µM [2]: < 25%

CC(C)(C[C@H]1CC[C@H](C(=O)O)CC1)NC[C@H](O)c1cccc(F)c1 [Compound 355, (1R,4r)-4-{2-[(R)-2-(m-fluorophenyl)-2-hydroxyethylamino]-2-methylpropyl}cyclohexanecarboxylic acid]
Emax at 10 µM [1]: 50 to 75%
Emax at 10 µM [2]: < 25%

CC(C)(C[C@H]1CC[C@H](C(=O)O)CC1)NC[C@H](O)c1cncc(F)c1 [Compound 356, (1R,4r)-4-{2-[(R)-2-(5-fluoro-3-pyridyl)-2-hydroxyethylamino]-2-methylpropyl}cyclohexanecarboxylic acid]
Emax at 10 µM [1]: < 25%
Emax at 10 µM [2]: < 25%

CC(=O)N[C@H]1CC[C@H](CC(C)(C)NC[C@H](O)c2cncc(F)c2)CC1 [Compound 357, N-[(1R,4r)-4-{2-[(R)-2-(5-fluoro-3-pyridyl)-2-hydroxyethylamino]-2-methylpropyl}cyclohexyl]acetamide]
Emax at 10 µM [1]: > 75%
Emax at 10 µM [2]: < 25%

CC(C)(CC[C@H]1CC[C@H](N)CC1)NC[C@H](O)c1cncc(F)c1 [Compound 358, (R)-2-{1,1-dimethyl-3-[(1r,4R)-4-aminocyclohexyl]propylamino}-1-(5-fluoro-3-pyridyl)-1-ethanol]
Emax at 10 µM [1]: 25 to 50%
Emax at 10 µM [2]: < 25%

CC(C)(C[C@H]1CC[C@H](N)CC1)NC[C@H](O)c1cncc(F)c1 [Compound 359, (R)-2-{1,1-dimethyl-2-[(1r,4R)-4-aminocyclohexyl]ethylamino}-1-(5-fluoro-3-pyridyl)-1-ethanol]
Emax at 10 µM [1]: > 75%
Emax at 10 µM [2]: < 25%

CC(C)(C[C@H]1CC[C@H](NS(C)(=O)=O)CC1)NC[C@H](O)c1cncc(F)c1 [Compound 360, (R)-2-{1,1-dimethyl-2-[(1r,4R)-4-(mesylamino)cyclohexyl]ethylamino}-1-(5-fluoro-3-pyridyl)-1-ethanol]
Emax at 10 µM [1]: > 75%
Emax at 10 µM [2]: < 25%

CC(=O)N[C@H]1CC[C@H](CCC(C)(C)NC[C@H](O)c2cncc(F)c2)CC1 [Compound 361, N-[(1R,4r)-4-{3-[(R)-2-(5-fluoro-3-pyridyl)-2-hydroxyethylamino]-3-methlbutyl}cyclohexyl]acetamide]
Emax at 10 µM [1]: > 75%
Emax at 10 µM [2]: < 25%

CC(C)(CC[C@H]1CC[C@H](NS(C)(=O)=O)CC1)NC[C@H](O)c1cncc(F)c1 [Compound 362, (R)-2-{1,1-dimethyl-3-[(1r,4R)-4-(mesylamino)cyclohexyl]propylamino}-1-(5-fluoro-3-pyridyl)-1-ethanol]
Emax at 10 µM [1]: 50 to 75%
Emax at 10 µM [2]: < 25%

CO[C@H]1CC[C@H](C[C@]2(C)CC[C@H]([C@@H](O)c3cccc(F)c3)N2)CC1 [Compound 363, (S)-[(2R,5S)-5-methyl-5-{[(1r,4S)-4-methoxycyclohexyl]methyl}-2-pyrrolidinyl](m-fluorophenyl)methanol]
Emax at 10 µM [1]: > 75%
Emax at 10 µM [2]: < 25%

CO[C@H]1CC[C@H](C[C@]2(C)CC[C@H]([C@H](O)c3cccc(F)c3)N2)CC1 [Compound 364, (R)-[(2R,5S)-5-methyl-5-{[(1r,4S)-4-methoxycyclohexyl]methyl}-2-pyrrolidinyl](m-fluorophenyl)methanol]
Emax at 10 µM [1]: > 75%
Emax at 10 µM [2]: 50 to 75%

COc1ccc(C[C@@]2(C)CC[C@H]([C@@H](O)c3cccc(F)c3)N2)cc1 [Compound 365, (S)-{(2R,5R)-5-[(p-methoxyphenyl)methyl]-5-methyl-2-pyrrolidinyl}(m-fluorophenyl)methanol]
Emax at 10 µM [1]: > 75%
Emax at 10 µM [2]: < 25%

COc1ccc(C[C@@]2(C)CC[C@H]([C@H](O)c3cccc(F)c3)N2)cc1 [Compound 366, (R)-{(2R,5R)-5-[(p-methoxyphenyl)methyl]-5-methyl-2-pyrrolidinyl}(m-fluorophenyl)methanol]
Emax at 10 µM [1]: > 75%
Emax at 10 µM [2]: 25 to 50%

COC(=O)[C@H]1CC[C@H](C(C)(C)NC[C@H](O)c2cccc(F)c2)CC1 [Compound 367, (1R,4r)-8-[(R)-2-(m-fluorophenyl)-2-hydroxyethylamino]-7-methoxy-p-menthan-7-one]
Emax at 10 µM [1]: > 75%
Emax at 10 µM [2]: 25 to 50%

CC(C)(NC[C@H](O)c1cccc(F)c1)[C@H]1CC[C@H](C(=O)O)CC1 [Compound 368, (1R,4r)-8-[(R)-2-(m-fluorophenyl)-2-hydroxyethylamino]-7-hydroxy-p-menthan-7-one]
Emax at 10 µM [1]: 25 to 50%
Emax at 10 µM [2]: < 25%

CC(C)(NC[C@H](O)c1cccc(F)c1)[C@H]1CC[C@@H](C(=O)O)CC1 [Compound 369, (1S,4s)-8-[(R)-2-(m-fluorophenyl)-2-hydroxyethylamino]-7-hydroxy-p-menthan-7-one]
Emax at 10 µM [1]: 50 to 75%
Emax at 10 µM [2]: < 25%

COC(=O)[C@H]1CC[C@H](C(C)(C)NC[C@H](O)c2cncc(F)c2)CC1 [Compound 370, (1R,4r)-8-[(R)-2-(5-fluoro-3-pyridyl)-2-hydroxyethylamino]-7-methoxy-p-menthan-7-one]
Emax at 10 µM [1]: > 75%
Emax at 10 µM [2]: < 25%

From US20260256751A1, “COMBINATION OF BETA-2-ADRENERGIC RECEPTOR AGONISTS AND GLP-1 RECEPTOR AGONISTS FOR USE IN TREATING HYPERGLYCAEMIA” (ATROGI AB, priority 2023, published 2026)
